Source: US20250114350A1, “INHIBITORS OF […] AS ANTIFUNGAL AGENTS” (Regents of the University of Minnesota, priority 2023, published 2025)
In brackets after ≈: the same amount, converted by molar mass. Entries after “also recorded” stand apart in the source; their conditions may differ. Read-outs that look alike come from different tables or passages of the source.

How the values were obtained:
[1] = molecular target: CnFTase (C. neoformans farnesyl transferase, α/β heterodimer) (Cryptococcus neoformans, UniProt J9VSJ6+T2BPA1); assay: CnFTase activity assay: farnesylation of a dansylated (fluorescent) peptide, inhibitor concentration giving half-maximal enzyme rates at 1 μM FPP (1μMIC50); conditions: read-out: CnFTase IC50 (1μMIC50), condition A: 20 nM CnFTase, dansyl-GCVVM 0.62 μM, Tris-HCl pH 7.5, ZnCl2 12.5 μM, 2.5% DMSO, room temperature, triplicate
Sequence of CnFTase (C. neoformans farnesyl transferase, α/β heterodimer) (J9VSJ6 entry or part of it): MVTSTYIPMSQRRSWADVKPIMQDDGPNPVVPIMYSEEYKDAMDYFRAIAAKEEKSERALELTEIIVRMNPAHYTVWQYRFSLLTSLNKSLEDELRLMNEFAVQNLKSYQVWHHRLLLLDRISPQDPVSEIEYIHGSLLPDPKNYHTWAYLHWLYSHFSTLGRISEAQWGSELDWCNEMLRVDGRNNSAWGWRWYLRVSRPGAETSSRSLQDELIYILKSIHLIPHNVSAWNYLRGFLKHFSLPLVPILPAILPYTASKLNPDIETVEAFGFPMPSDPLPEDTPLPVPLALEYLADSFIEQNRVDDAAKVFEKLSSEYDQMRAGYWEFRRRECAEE
Sequence of CnFTase (C. neoformans farnesyl transferase, α/β heterodimer) (T2BPA1 entry or part of it): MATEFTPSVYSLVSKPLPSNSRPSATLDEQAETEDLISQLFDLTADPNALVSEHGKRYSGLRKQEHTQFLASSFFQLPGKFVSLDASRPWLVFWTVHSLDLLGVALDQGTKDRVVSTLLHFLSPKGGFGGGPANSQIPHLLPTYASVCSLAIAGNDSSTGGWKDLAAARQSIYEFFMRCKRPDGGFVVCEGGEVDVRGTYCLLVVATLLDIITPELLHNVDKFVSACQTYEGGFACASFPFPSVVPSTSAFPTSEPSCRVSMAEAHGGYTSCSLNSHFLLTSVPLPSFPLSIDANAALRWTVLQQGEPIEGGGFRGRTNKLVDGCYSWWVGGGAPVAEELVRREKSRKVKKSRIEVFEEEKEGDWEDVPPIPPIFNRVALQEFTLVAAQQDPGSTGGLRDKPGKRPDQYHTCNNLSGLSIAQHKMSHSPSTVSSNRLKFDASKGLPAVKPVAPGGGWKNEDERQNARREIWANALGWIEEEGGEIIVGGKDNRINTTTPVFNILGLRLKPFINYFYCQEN
Method: (§2) CnFTase activity assay. […] Final CnFTase concentrations (from 5× or 10× stocks in 20 mM Tris-HCl pH7.5, 20 mM NaCl, 5 μM ZnCl2, 1 mM TCEP, 1 mg/mL BSA): A, 20 nM; B: 4.4, 6.7, 10 nM triplets. […] For experiments that included phosphate, pH 7.5 stock was added to the desired final concentration. […] Data for determining ^1μMIC50 values (condition A) was collected in triplicate. Initial rates, vo, were extracted by fitting a straight line to the initial to tmax seconds of the reaction progress curves, where tmax values were selected by inspection and entered into curator tables for automated analysis. 1μMIC50 were determined by fitting a single-site Langmuir ligand-binding isotherm to the dependence of vo on inhibitor concentration (2, see below). All other experiments (condition B) all other experiments (condition B) used three different CnFTase concentrations, collecting progress curves as a function of FPP, inhibitor, and phosphate concentrations. The resulting triplet of progress curves was used to extract vo values automatically by minimizing
If x is an inhibitor concentration, then IC50=Ka^−1. […] In general, baseline signals, σ, (α or β) can be constant, or linear functions of ligand concentration x

C. neoformans [2] = assay: Minimum inhibitory concentration (MIC): disc diffusion and broth microdilution; conditions: for MIC: Cryptococcus neoformans
Method: Antifungal activity was determined by measuring minimum inhibitory concentrations (MIC) of C. neoformans by two methods: a solid medium disc diffusion assay and broth microdilution assay.
Disc diffusion assay. Overnight cultures of C. neoformans (about 18 hours) were normalized to OD600 0.6, diluted 1/10, and 200 μL of each sample were spread onto either a YPD or YPGal (yeast extract-peptone medium with 3% galactose) plate using sterile glass beads. After drying, 10 μL of compound or solvent control (DMSO) was added to sterile 6 mm filter discs on each plate. Plates were incubated for 48 hours at 37° C.
Minimum inhibitory concentration (MIC) assays. C. neoformans: Overnight cultures (˜18 h) of C. neoformans strains incubated in YPD medium were diluted to 500 cells/ml in RPMI medium buffered with MOPS. Cells were aliquoted (200 μL/well) in black-wall, clear-bottom 96-wells plates (Greiner). Compound stock solutions in DMSO ranged from 9 μM to 20 mM, and added to 200 μL cell suspension aliquoted in 96-well plates. Final aqueous concentrations ranged from 200 μM to 0.09 μM, limiting DMSO to 1%. After 48-hr incubation at 37° C. or 30° C. for 48 h, 10% AlamarBlue (BioRad) was added. The end-point fluorescence intensity of reduced AlamarBlue was measured using a fluorescence plate reader (FLUORStar Optima plate reader) at the time point the indicator turned from blue to pink in healthy control cells.^51 Assays were performed in duplicate.

[3] = test system: Schizosaccharomyces pombe; assay: S. pombe MIC assay (efflux effects); conditions: for MIC: Schizosaccharomyces pombe
[4] = test system: C. neoformans strain over-expressing CnFTase (pGAL7-RAM1); assay: Disc diffusion assay with galactose-inducible RAM1 over-expression; assay type: cell-based, Cryptococcus neoformans; conditions: galactose induced; discs with 10 μL of 20 mM
Method: (§1) FIG. 3. CnFTase is the in vivo target of 2f. (A) Ras cellular mislocalization, assessed by epifluorescent microscopy (1000×). Bar=10 μm. Top. […] Bottom. Control patterns of Ras localization with wild-type (left) and ram1Δ deletion (right) strains expressing mCherry-Ras1. […] A C. neoformans strain transformed with the galactose-regulated pGAL7-RAM1 over-expression construct was incubated with glucose (uninduced, bottom), and galactose (induced, top). Antifungal activity was assessed by the relative size of the zone of fungal growth inhibition surrounding sterile discs impregnated with 10 μL of 20 mM 2f dissolved in DMSO (bottom disk) or DMSO alone (top disc).
Molecular Biology. […] To induce C. neoformans mating, strains of opposite mating types were co-cultured on MS medium at 25° C. for seven days (Murashige, T, et al., Physiol Plantarum, 1962, 15, 473-497). A C. neoformans strain with a galactose-inducible RAM1 allele (CBN482) was similarly created with primers designed to create an overlap construct comprising the C. neoformans RAM1 5′ sequence-neomycin resistance cassette-GAL7 promoter-RAM1 coding sequence (FIG. 9) to precisely replace the RAM1 promoter with the GAL7 galactose inducible when introduced into the H99 genome by biolistic transformation.
Disc diffusion assay. […]

mammalian FTase = mammalian FTase (Homo sapiens, UniProt P49354+P49356); assay: Inhibition of mammalian FTase; assay type: biochemical
Sequence of mammalian FTase (P49356 whole entry, one chain of several): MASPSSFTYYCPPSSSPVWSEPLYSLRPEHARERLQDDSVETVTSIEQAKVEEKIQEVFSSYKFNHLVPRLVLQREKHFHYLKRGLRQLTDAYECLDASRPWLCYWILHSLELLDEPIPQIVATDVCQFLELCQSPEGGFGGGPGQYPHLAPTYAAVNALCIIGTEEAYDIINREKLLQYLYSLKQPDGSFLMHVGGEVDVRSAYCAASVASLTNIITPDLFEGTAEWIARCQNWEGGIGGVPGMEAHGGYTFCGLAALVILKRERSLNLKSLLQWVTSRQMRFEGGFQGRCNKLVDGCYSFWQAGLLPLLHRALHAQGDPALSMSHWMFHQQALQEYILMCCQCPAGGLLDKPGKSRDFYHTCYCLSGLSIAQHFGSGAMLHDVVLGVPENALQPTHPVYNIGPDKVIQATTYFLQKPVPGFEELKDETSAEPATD

[5] = test system: J774A.1 macrophage-like murine cells; conditions: mouse, 24 h
Method: Macrophage cytotoxicity assays. […] 2 μL of the serially diluted compound were transferred to a 96-well plate containing 200 μL DMEM (100× dilution). J774A.1, a macrophage-like murine cell line, was incubated in DMEM (Dulbecco's Modified Eagle Medium, Sigma-Aldrich) to 70% confluency, harvested, washed in PBS, then transferred to black, clear-bottom 96-well plates (Greiner) at 10^5 cells/well. Plates were incubated overnight at 37° C. and 5% CO2. The macrophage medium covering the J774A.1 monolayer was replaced with 100 μL of DMEM containing the serially diluted inhibitors (50× dilution) and incubated for 24 h at 37° C. and 5% CO2. Macrophage viability was assessed at 24 h by the addition of 10% AlamarBlue and incubating for 3 h at 37° C. and 5% CO2 prior to fluorescence measurement (FLUORStar Optima plate reader). Assays were performed in duplicate.

CnFTase = CnFTase (Cryptococcus neoformans, UniProt J9VSJ6+T2BPA1); assay: CnFTase steady-state kinetics fit to competitive/uncompetitive/mixed inhibition models; conditions: for inhibition mode: with respect to FPP
Sequence of CnFTase (J9VSJ6 entry or part of it): as the sequence (J9VSJ6 entry or part of it) above
Sequence of CnFTase (T2BPA1 entry or part of it): as the sequence (T2BPA1 entry or part of it) above
Method: as §2
where χk^2 is the squared difference of the calculated and observed emissions in the k^th iteration of the minimizer, fi the initial fraction (constrained in the interval [0.5,1]) of the T time points of the progress curve, Di the dilution factor of the i^th progress curve (0.44:0.66:1 for condition B), S0ik the fluorescence emission intensity of the i^th progress curve at t=0 at the k^th (this value is refined individually using a one-dimensional golden section search^52 with fi and v0 values of the k−1 iteration), and ^obsSji, the observed intensity of the i^th progress curve at the j^th time point. The target function 1 is minimized using conjugate gradients with vo and fi as the degrees of freedom. The resulting rates were then fit to binding polynomials describing the inhibition mechanism (5-13, see below).
Binding polynomials for inhibition models. The initial steady-state rates of a reaction involving a single-substrate x, and inhibitor y are given by
Three binding polynomials were used:
where Ka, KC, and KU are the affinities of the enzyme for substrate, competitive inhibitor, and uncompetitive inhibitor, respectively.
Solvers for non-ideal conditions. In non-ideal conditions 9 is false, and the total protein concentration needs to be included as a degree of freedom, requiring the roots of the following multivariate polynomial to be found (see below for derivation):

[6] = test system: Gfp-Ras1 localization in C. neoformans; assay: Ras1 cellular localization by fluorescent microscopy; assay type: cell-based, Cryptococcus neoformans; conditions: sub-lethal concentrations; 0.78 μM (sub-inhibitory)
Method: as §1
Compound 2f inhibited FTase activity in vivo. […] Both effects are consistent with CnFTase being the target of Compound 2f, as expected.
Microscopy. […] A drug-free control sample contained 1% DMSO. Ras1 localization in a ram1Δ mutant strain was determined in a similar manner: a ram1Δ mutant and wild-type strain, each expressing mCherry-Ras1 under a constitutive promoter (CBN121 and SKE17) were incubated overnight in YPD medium at 30° C., diluted to OD600 0.1 in YPD, then incubated for 24 hours at 37° C. All cells were visualized and imaged by fluorescent microscopy at 1000× magnification using a Zeiss Imager A1 microscope and Zeiss Axio-Cam MRM digital camera. […]

C. neoformans biofilms = assay: Biofilm inhibition; assay type: cell-based, Cryptococcus neoformans
[7] = test system: C. neoformans FTase (CnFTase); assay: CnFTase activity assay, farnesylation of a fluorescent (dansylated) peptide, 1μMIC50; assay type: biochemical, Cryptococcus neoformans; conditions: for change of affinity relative to the comparator analogue (cf.): pairwise comparison of analogues differing in one R group
Method: The library of 23 compounds contained leads with 60- to 150-fold enhanced ^1μMIC50 values.
CnFTase activity assay. The farnesyl transferase activity was measured by measuring the time dependence of the fluorescence emission intensity increase due to farnesylation of a dansylated peptide (Cassidy, P. B, et al., Methods Enzymol, 1995, 250, 30-43). Measurements were taken at room temperature in a 96-well black polystyrene, half area, flat bottom, non-binding surface plate using a SpectraMax M5e plate reader (excitation wavelength, 340 nm; emission wavelength 525 nm; emission high-pass filter, 455 nm). […] Final CnFTase concentrations (from 5× or 10× stocks in 20 mM Tris-HCl pH7.5, 20 mM NaCl, 5 μM ZnCl2, 1 mM TCEP, 1 mg/mL BSA): A, 20 nM; B: 4.4, 6.7, 10 nM triplets. […] For experiments that included phosphate, pH 7.5 stock was added to the desired final concentration. Data was analyzed using Python scripts for the Biomolecular Computing (BMC) package, included in the Dryad electronic repository. Data for determining ^1μMIC50 values (condition A) was collected in triplicate. Initial rates, vo, were extracted by fitting a straight line to the initial to tmax seconds of the reaction progress curves, where tmax values were selected by inspection and entered into curator tables for automated analysis. 1μMIC50 were determined by fitting a single-site Langmuir ligand-binding isotherm to the dependence of vo on inhibitor concentration (2, see below). All other experiments (condition B) […] used three different CnFTase concentrations, collecting progress curves as a function of FPP, inhibitor, and phosphate concentrations. The resulting triplet of progress curves was used to extract vo values automatically by minimizing
Single-site binding isotherms. Signals, S, resulting from a binding reaction were fit to
where α and β are the baselines associated with the apo-protein and its ligand complex, respectively, and y fractional occupancy of the binding site
If x is an inhibitor concentration, then IC50=Ka^−1. For Michaelis-Menten analysis 2 is reduced to a standard form (Bahar, I.; Jernigan, R. L.; Dill, K. A. Protein Actions, principles & modeling. Garland Science: 2017) with S=vo (initial rates), α=0, β=Vmax (maximal velocity), and KM=Ka^−1 (substrate dissociation constant). In general, baseline signals, σ, (α or β) can be constant, or linear functions of ligand concentration x

C. neoformans [8] = conditions: C. neoformans; Bongomin et al. 2018; cited from earlier work

Row | SMILES | IC50 [1] [nM] | MIC (C. neoformans [2]) [µM] | change of affinity relative to the comparator analogue (cf.) [7] | further results
1 | CCCC[C@H]1CN(c2cccc(OC(F)(F)F)c2)C(=O)CN1Cc1cncn1Cc1ccc(Br)cc1 [Compound 2f, (S)-4-((1-(4-Bromobenzyl)-1H-imidazol-5-yl)methyl)-5-butyl-1-(3-(trifluoromethoxy)phenyl)piperazin-2-one] | 190 ± 60 | 3 to 6 (≈ 1.7 to 3.39 µg/mL) | – | MIC improvement in efflux-defective strain ([3]; MJ-1682 vs wild-type): eight-fold; MIC ([3]; efflux-defective strain MJ-1682): 1.5 µM (≈ 0.848 µg/mL); MIC ([3]; wild-type S. pombe): 12.5 µM (≈ 7.07 µg/mL); effect of CnFTase (Ram1) over-expression on antifungal activity [4]: negates 2f antifungal activity; also recorded: negated antifungal activity; IC50 on mammalian FTase, worse than on the fungal enzyme (mammalian FTase): about 30 fold; MIC [5]: 200 µM (≈ 113 µg/mL); improvement of competitive affinity in the H state (CnFTase; H state vs L state): ~100 fold; competitive affinity better than the uncompetitive value (CnFTase; H state, 10 mM phosphate): ~170 fold; Ki (CnFTase; HKU, uncompetitive inhibitor affinity (dissociation constant), H state, 10 mM phosphate (H state)): 500 nM; Ki (CnFTase; LKU, uncompetitive inhibitor affinity (dissociation constant), L state, absence of phosphate (L state)): 750 nM; Ki (CnFTase; read-out: HKC, competitive inhibitor affinity (dissociation constant), H state, 10 mM phosphate (H state)): 3 nM; Ki (CnFTase; read-out: LKC, competitive inhibitor affinity (dissociation constant), L state, absence of phosphate (L state)): 320 nM; inhibition mode (CnFTase): mixture of two binding modes: uncompetitive like Compound 2q, and a competitive mode that displaces FPP; Gfp-Ras1 localization [6]: remains in the cytoplasm; also recorded: does not localize to the plasma membrane; biofilm inhibition (C. neoformans biofilms): inhibits C. neoformans biofilms
2 | CCCC[C@H]1CN(c2cccc(OC(F)(F)F)c2)C(=O)CN1Cc1cncn1Cc1ccc(C(F)(F)F)cc1 [Compound 2h, (S)-5-Butyl-1-(3-(trifluoromethoxy)phenyl)-4-((1-(4-(trifluoromethyl)benzyl)-1H-imidazol-5-yl)methyl)piperazin-2-one] | 280 ± 150 | 3 to 6 (≈ 1.66 to 3.33 µg/mL) | – | –
3 | N#Cc1ccc(Cn2cncc2CN2CCN(c3cccc(OC(F)(F)F)c3)C(=O)C2)cc1 [Compound 2j, (S)-4-((5-((3-Oxo-4-(3-(trifluoromethoxy)phenyl)piperazin-1-yl)methyl)-1H-imidazol-1-yl)methyl)benzonitrile] | 2700 ± 1100 | – | had little effect or were slightly deleterious | –
4 | CCC[C@H]1CN(c2cccc(OC(F)(F)F)c2)C(=O)CN1Cc1cncn1Cc1ccc(Br)cc1 [Compound 2k, (S)-4-((1-(4-Bromobenzyl)-1H-imidazol-5-yl)methyl)-5-propyl-1-(3-(trifluoromethoxy)phenyl) piperazin-2-one] | 1100 ± 510 | 3 to 6 (≈ 1.65 to 3.31 µg/mL) | reduced affinity | –
5 | CCCC[C@H]1CN(c2cccc(C)c2C)C(=O)CN1Cc1cncn1Cc1ccc(C#N)cc1 [Compound 2n, (S)-4-((5-((2-butyl-4-(2,3-dimethylphenyl)-5-oxopiperazin-1-yl)methyl)-1H-imidazol-1-yl)methyl)benzonitrile] | 2200 ± 1300 | – | had little effect or were slightly deleterious | –
6 | CCCC[C@H]1CN(c2cccc(OC(F)(F)F)c2)C(=O)CN1Cc1cncn1Cc1ccc(C#N)c(F)c1 [Compound 2q, (S)-4-((5-((2-Butyl-5-oxo-4-(3-(trifluoromethoxy)-phenyl)piperazin-1-yl)methyl)-1H-imidazol-1-yl)methyl)-2-fluorobenzonitrile] | – | – | 9 fold | antifungal activity (C. neoformans [2]; C. neoformans): barely exhibited antifungal activity; improvement of 1μMIC50 over L-778,123 ([7]; 1 μM FPP, relative to L-778,123): 150 fold; Ki (CnFTase): 4 nM; improvement of uncompetitive binding affinity in the H state (CnFTase; H state vs L state): ~10%; inhibition mode (CnFTase): purely uncompetitive inhibitor
7 | N#Cc1ccc(Cn2cncc2CN2CCN(c3cccc(OC(F)(F)F)c3)C(=O)C2)cc1F [Compound 2s, 2-Fluoro-4-((5-((3-Oxo-4-(3-(trifluoromethoxy)phenyl)piperazin-1-yl)methyl)-1H-imidazol-1-yl)methyl)benzonitrile] | 120 ± 40 | – | 20 fold | –
8 | OC(Cn1cncn1)(Cn1cncn1)c1ccc(F)cc1F [fluconazole] | – | – | – | MIC (C. neoformans [8]): ≥ 8 µg/mL

Second part, led by results:

Row | IC50 [1] [nM] | MIC (C. neoformans [2]) [µM] | change of affinity relative to the comparator analogue (cf.) [7] | SMILES | further results
9 | 260 ± 130 | 3 to 6 (≈ 1.56 to 3.13 µg/mL) | – | CCCC[C@H]1CN(c2cccc(OC(F)(F)F)c2)C(=O)CN1Cc1cncn1Cc1ccc(Cl)cc1 [Compound 2e] | –
10 | 150 ± 60 | – | did not alter affinities | CCCC[C@H]1CN(c2cccc(OC(F)(F)F)c2)C(=O)CN1Cc1cncn1Cc1ccc(C#N)c(Oc2ccccc2)c1 [Compound 2u, (S)-4-((5-((2-butyl-5-oxo-4-(3-(trifluoromethoxy)phenyl)-piperazin-1-yl)methyl)-1H-imidazol-1-yl)methyl)-2-phenoxybenzonitrile] | –
11 | 2600 ± 1400 | – | did not alter affinities | N#Cc1ccc(Cn2cncc2CN2CCN(c3cccc(OC(F)(F)F)c3)C(=O)C2)cc1Oc1ccccc1 [Compound 2w, 4-((5-((3-Oxo-4-(3-(trifluoromethoxy)phenyl)piperazin-1-yl)methyl)-1H-imidazol-1-yl)methyl)-2-phenoxybenzonitrile] | –
12 | – | 3 to 6 (≈ 1.74 to 3.48 µg/mL) | showed little improvement | CCCCC[C@H]1CN(c2cccc(OC(F)(F)F)c2)C(=O)CN1Cc1cncn1Cc1ccc(Br)cc1 [Compound 21, (S)-4-((1-(4-Bromobenzyl)-1H-imidazol-5-yl)methyl)-5-pentyl-1-(3-(trifluoromethoxy)phenyl)piperazin-2-one] | –
